Test results published in patent publication US20150344485A1, “BICYCLIC PYRIMIDONE COMPOUNDS AS INHIBITORS OF LP-PLA2” (GLAXOSMITHKLINE INTELLECTUAL PROPERTY DEVELOPMENT LIMITED, priority 2013, published 2015).
Like-named read-outs stand apart in the source and are kept apart here.

What was measured:
[1] = biological target: T1, recombinant human Lp-PLA2 (Homo sapiens, UniProt Q13093); test: Recombinant human Lp-PLA2 assay (rhLp-PLA2, PED6 assay); format: biochemical
T1 sequence (Q13093 22-441): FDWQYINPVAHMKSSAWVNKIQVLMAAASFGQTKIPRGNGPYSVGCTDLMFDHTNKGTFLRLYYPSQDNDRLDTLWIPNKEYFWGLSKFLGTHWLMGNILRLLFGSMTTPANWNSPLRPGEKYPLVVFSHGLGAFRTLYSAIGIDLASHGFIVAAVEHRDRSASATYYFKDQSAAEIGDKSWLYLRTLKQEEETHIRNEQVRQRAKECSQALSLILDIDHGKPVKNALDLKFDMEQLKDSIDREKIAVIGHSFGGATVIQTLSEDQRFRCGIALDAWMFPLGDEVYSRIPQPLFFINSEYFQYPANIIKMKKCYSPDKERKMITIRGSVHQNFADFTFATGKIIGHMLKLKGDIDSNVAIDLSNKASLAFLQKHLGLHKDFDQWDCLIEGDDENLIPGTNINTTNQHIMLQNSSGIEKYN
Source text: (1) Recombinant Human Lp-PLA2 Assay (rhLp-PLA2) (Also Referred to as “PED6” Assay)
N-((6-(2,4-dinitrophenyl)amino)-hexanoyl)-2-(4,4-difluoro-5,7-dimethyl-4-bora-3a,4a-diaza-s-indacene-3-pentanoyl)-1-hexadecanoyl-sn-glycero-3-phosphoethanolamine, triethylammonium salt (PED6) is a commercially available fluorescently-labeled phospholipid, which is commercially available from Invitrogene and Molecular Probes. There is a quenching para-nitro phenyl (PNP) group in the sn3 position and a Bodipy fluorescein (FL) group in the sn2 position. Upon cleavage with Lp-PLA2, the Bodipy FL group is liberated and then may result in an increase in fluorescence. Inhibitors of Lp-PLA2 therefore prevent this cleavage and no fluorescent increase is observed.
The PED6 assay was run as an unquenched 10 μL assay. The source plate containing the compounds to be tested was prepared by making 1:3 (by volume) serial dilution of the compounds within DMSO on 384-well microplate. Then, 0.01 μL of the compounds on compound source plate were transferred into 384 well Greiner 784076 (black) plates using ECHO liquid dispenser. 5 μL of recombinant human Lp-PLA2 enzyme (4 nM (or 110 pM) rhLp-PLA2 in assay buffer of 50 mM HEPES, pH 7.4, 150 mM NaCl, 1 mM CHAPS) was added to each well of the plate. Plates were centrifuged for 10 sec at 500 rpm. After 30 minutes preincubation, 5 μL of substrate (4 μM (or 5 μM) PED6 [from 5 mM DMSO stock] in assay buffer of 50 mM HEPES, pH 7.4, 150 mM NaCl, 1 mM CHAPS) was added to 384 well Greiner 784076 (black) plates. Plates were centrifuged for 10 sec at 500 rpm. The plate was covered to protect it from light and incubated for 20 min at room temperature. The plates were read for fluorescence intensity at ex: 480/em: 540 using ViewLux microplate imager for Envision spectrofluroimeters. pIC50 data, curve and QC analysis was conducted by using XL fit module in Excel.

Lp-PLA2 in human plasma = biological target: T2, Lp-PLA2 in human plasma (Homo sapiens, UniProt Q13093); test: Lp-PLA2 human plasma assay (Thio-PAF assay); format: biochemical; settings: pooled human plasma; read-out: pIC50 values in the thio-PAF assay (converted)
T2 construct: from tissue; host or cells: pooled human plasma
T2 sequence (Q13093 22-441): T1 sequence (Q13093 22-441)
Source text: The human plasma assay utilizes a thioester analog of PAF (phosphatidylcholine), where hydrolysis yields to the formation of a phospholipid containing a free thiol group. The amount of thiol is quantitated continuously by reacting with CPM (7-diethylamino-3-(4′-maleimidylphenyl)-4-methylcoumarin), a maleimide which increases in fluoresence after Michael addition of thiols. This assay may detect the activity of Lp-PLA2 in human plasma, as determined by specific inhibition by Lp-PLA2 inhibitors.
The thio-PAF assay was run as a quenched 15 μL assay. Compounds source plate was prepared by making 1:3 (by volume) serial dilution of the compounds into pure DMSO on 384-well microplate. 0.01 μL of compounds on compound source plate were transferred to 384 well Greiner 784076 (black) low-volume plates by ECHO liquid dispenser. 8 μL pooled human plasma, which was previously aliquoted and frozen, was added. Plates were centrifuged for 10 sec at 500 rpm. After 30 minutes preincubation, 2 μL of substrate solution comprising 2.5 mM 2-thio-PAF [from ethanol stock], 32 μM CPM [from a DMSO stock] and 3.2 mM NEM (N-ethylmaleimide) [made fresh daily in DMSO] in assay buffer of 50 mM HEPES, pH 7.4, 150 mM NaCl, 1 mM CHAPS was added to 384 well Greiner 784076 (black) low-volume plates by BRAVO liquid handling station. After 2 mins, reaction was quenched with 5 μL of 5% aqueous trifluoroacetic acid (TFA). Plates were covered to protect from light and incubated for 40 min at room temperature. Plates were read at ex: 380/em: 485 using-Envision microplate reader. pIC50 data, curve and QC analysis was conducted by using XLFit module in Excel.

[2] = read-out: pIC50 values in the recombinant human Lp-PLA2 assay (converted)
[3] = read-out: rhLp-PLA2 (PED6 assay) (pIC50) (converted)

| Structure (SMILES) | IC50 [1, 2] [nM] | IC50 (Lp-PLA2 in human plasma) [nM] | IC50 [1, 3] [nM] |
| --- | --- | --- | --- |
| CN1c2cc(OCc3cc(F)c(F)c(F)c3)nc(=O)n2CCC1(C)C [E54, 1,2,2-trimethyl-8-((3,4,5-trifluorobenzyl)oxy)-3,4-dihydro-1H-pyrimido[1,6-a]pyrimidin-6(2H)-one] | ≤ 1 | ≤ 100 | – |
| CCN1c2cc(OCc3cc(F)c(F)c(F)c3)nc(=O)n2CC[C@@H]1C [E56, (S)-1-ethyl-2-methyl-8-((3,4,5-trifluorobenzyl)oxy)-3,4-dihydro-1H-pyrimido[1,6-a]pyrimidin-6(2H)-one] | ≤ 1 | ≤ 10 | 0.398 |
| C[C@H]1CCn2c(cc(OCc3cc(F)c(Oc4cccc(C(F)(F)F)c4)c(F)c3)nc2=O)N1C [E62, (S)-8-((3,5-difluoro-4-(3-(trifluoromethyl)phenoxy)benzyl)oxy)-1,2-dimethyl-3,4-dihydro-1H-pyrimido[1,6-a]pyrimidin-6(2H)-one] | – | ≤ 10 | 3.98 |
| [2H]C([2H])(Oc1cc2n(c(=O)n1)CCC(C)(C)N2C)c1cc(F)c(F)cc1F [E71, 8-(dideutero(2,4,5-trifluorophenyl)methoxy)-1,2,2-trimethyl-3,4-dihydro-1H-pyrimido[1,6-a]pyrimidin-6(2H)-one] | ≤ 1 | ≤ 100 | – |
| [2H]C([2H])(Oc1cc2n(c(=O)n1)CCC(C)(C)N2C)c1cccc(F)c1F [E73, 8-((2,3-difluorophenyl)dideuteromethoxy)-1,2,2-trimethyl-3,4-dihydro-1H-pyrimido[1,6-a]pyrimidin-6(2H)-one] | ≤ 1 | ≤ 100 | – |
| [2H]C([2H])(Oc1cc2n(c(=O)n1)CCC(C)(C)N2C)c1cc(F)cc(F)c1 [E75, 8-((3,5-difluorophenyl)dideuteromethoxy)-1,2,2-trimethyl-3,4-dihydro-1H-pyrimido[1,6-a]pyrimidin-6(2H)-one] | ≤ 1 | ≤ 100 | – |
| C[C@@H]1CCn2c(cc(OCc3ccc(Oc4ccc(Cl)c(F)c4)c(C#N)c3)nc2=O)N1C [E76, (R)-2-(4-chloro-3-fluorophenoxy)-5-(((1,2-dimethyl-6-oxo-2,3,4,6-tetrahydro-1H-pyrimido[1,6-a]pyrimidin-8-yl)oxy)methyl)benzonitrile] | ≤ 1 | ≤ 100 | – |
| C[C@@H]1CCn2c(cc(OCc3cc(F)c(Oc4cccc(C(F)(F)F)c4)c(F)c3)nc2=O)N1C [E77, (R)-8-((3,5-difluoro-4-(3-(trifluoromethyl)phenoxy)benzyl)oxy)-1,2-dimethyl-3,4-dihydro-1H-pyrimido[1,6-a]pyrimidin-6(2H)-one] | ≤ 1 | ≤ 10 | – |
| C[C@@H]1CCn2c(cc(OCc3ccc(Oc4ccc(C(F)(F)F)cc4)c(C#N)c3)nc2=O)N1C [E78] | ≤ 1 | ≤ 100 | – |
| C[C@@H]1CCn2c(cc(OCc3ccc(Oc4ccc(F)c(Cl)c4)c(C#N)c3)nc2=O)N1C [E79, (R)-2-(3-chloro-4-fluorophenoxy)-5-(((1,2-dimethyl-6-oxo-2,3,4,6-tetrahydro-1H-pyrimido[1,6-a]pyrimidin-8-yl)oxy)methyl)benzonitrile] | ≤ 1 | ≤ 100 | – |
| C[C@@H]1CCn2c(cc(OCc3ccc(Oc4ccc(F)c(F)c4)c(F)c3)nc2=O)N1C [E80, (R)-8-((4-(3,4-difluorophenoxy)-3-fluorobenzyl)oxy)-1,2-dimethyl-3,4-dihydro-1H-pyrimido[1,6-a]pyrimidin-6(2H)-one] | ≤ 1 | ≤ 100 | – |
| C[C@H]1CCn2c(cc(OCc3ccc(Oc4ccc(F)c(C(F)(F)F)c4)cc3)nc2=O)N1C [E84, (S)-8-((4-(4-fluoro-3-(trifluoromethyl)phenoxy)benzyl)oxy)-1,2-dimethyl-3,4-dihydro-1H-pyrimido[1,6-a]pyrimidin-6(2H)-one] | ≤ 1 | ≤ 10 | – |
| C[C@H]1CCn2c(cc(OCc3ccc(Oc4ccc(F)c(Cl)c4)c(C#N)c3)nc2=O)N1C [E85, (S)-2-(3-chloro-4-fluorophenoxy)-5-(((1,2-dimethyl-6-oxo-2,3,4,6-tetrahydro-1H-pyrimido[1,6-a]pyrimidin-8-yl)oxy)methyl)benzonitrile] | ≤ 1 | ≤ 10 | – |
| C[C@H]1CCn2c(cc(OCc3ccc(Oc4ccc(F)c(F)c4)c(F)c3)nc2=O)N1C [E86, (S)-8-((4-(3,4-difluorophenoxy)-3-fluorobenzyl)oxy)-1,2-dimethyl-3,4-dihydro-1H-pyrimido[1,6-a]pyrimidin-6(2H)-one] | ≤ 1 | ≤ 100 | – |
| C[C@@H]1CCn2c(cc(OCc3ccc(Oc4ccc(F)c(C(F)(F)F)c4)cc3)nc2=O)N1C [E87, (R)-8-((4-(4-fluoro-3-(trifluoromethyl)phenoxy)benzyl)oxy)-1,2-dimethyl-3,4-dihydro-1H-pyrimido[1,6-a]pyrimidin-6(2H)-one] | ≤ 1 | ≤ 10 | – |
| CN1c2cc(OCc3cc(F)c(Oc4ccc(C(F)(F)F)nc4)c(F)c3)nc(=O)n2CCC1(C)C [E88, 8-((3,5-difluoro-4-((6-(trifluoromethyl)pyridin-3-yl)oxy)benzyl)oxy)-1,2,2-trimethyl-3,4-dihydro-1H-pyrimido[1,6-a]pyrimidin-6(2H)-one] | ≤ 1 | ≤ 100 | – |
| CN1c2cc(OCc3ccc(Oc4ccnc(C(F)(F)F)c4)c(F)c3)nc(=O)n2CCC1(C)C [E89, 8-((3-fluoro-4-((2-(trifluoromethyl)pyridin-4-yl)oxy)benzyl)oxy)-1,2,2-trimethyl-3,4-dihydro-1H-pyrimido[1,6-a]pyrimidin-6(2H)-one] | ≤ 1 | ≤ 10 | – |
| C[C@H]1CCn2c(cc(OCc3cc(F)c(Oc4ccc(F)c(F)c4)c(F)c3)nc2=O)N1C [E90, (S)-8-((4-(3,4-difluorophenoxy)-3,5-difluorobenzyl)oxy)-1,2-dimethyl-3,4-dihydro-1H-pyrimido[1,6-a]pyrimidin-6(2H)-one] | ≤ 1 | ≤ 10 | – |
| C[C@H]1CCn2c(cc(OCc3ccc(Oc4cccc(C(F)(F)F)c4)c(F)c3)nc2=O)N1C [E91, (S)-8-((3-fluoro-4-(3-(trifluoromethyl)phenoxy)benzyl)oxy)-1,2-dimethyl-3,4-dihydro-1H-pyrimido[1,6-a]pyrimidin-6(2H)-one] | ≤ 1 | ≤ 10 | – |
| C[C@H]1CCn2c(cc(OCc3ccc(Oc4cccc(F)c4)c(C#N)c3)nc2=O)N1C [E92, (S)-5-(((1,2-dimethyl-6-oxo-2,3,4,6-tetrahydro-1H-pyrimido[1,6-a]pyrimidin-8-yl)oxy)methyl)-2-(3-fluorophenoxy)benzonitrile] | ≤ 1 | ≤ 10 | – |
| C[C@H]1CCn2c(cc(OCc3ccc(Oc4ccc(C(F)(F)F)cc4)c(F)c3)nc2=O)N1C [E93, (S)-8-((3-fluoro-4-(4-(trifluoromethyl)phenoxy)benzyl)oxy)-1,2-dimethyl-3,4-dihydro-1H-pyrimido[1,6-a]pyrimidin-6(2H)-one] | ≤ 1 | ≤ 10 | – |
